# Test results as given in paper PMC5573830 (The Journal of Veterinary Medical Science, 2017).
# Target: rTgAPN2 (recombinant aminopeptidase N2, TgAPN2) (Toxoplasma gondii, UniProt A0A7J6K0L4)
# Assay: residual H-Ala-MCA hydrolysis, fluorescence
# Format: biochemical
# Settings: 30 min pre-incubation at 37 °C, substrate H-Ala-MCA
structure (smiles),measurement,value
CC(C)C[C@H](NC(=O)[C@@H](O)[C@H](N)Cc1ccccc1)C(=O)O [bestatin],residual enzyme activity (%),The activity of rTgAPN2 was reduced in a dose-dependent manner in the presence of bestatin or amastatin
